Experimental data published in patent US20220033396A1, “FURTHER HETEROAROMATIC COMPOUNDS HAVING ACTIVITY AGAINST RSV” (priority 2018, published 2022).

Legend:
in vitro = details: human
rgRSV224 virus = test: microbe, parasite or virus in culture; assay type: cell-based; details: human respiratory syncytial virus, 72 h; rgRSV224 virus (MOI=1), HeLa cells, GFP expression three days post-virus exposure; averaged data of several repeat experiments; read-out: RSV HELA EC50

C[C@@H]1c2ccccc2CCN1C(=O)c1cn2cc(-c3ccc(N4C[C@H](O)[C@@H](O)C4)cc3F)nc2c(C2CC2)n1 [Compound 48, (8-cyclopropyl-2-(4-((3 S,4 S)-3,4-dihydroxypyrrolidin-1-yl)-2-fluorophenyl)imidazo[1,2-a]pyrazin-6-yl)((R)-1-methyl-3,4-dihydroisoquinolin-2(1H)-yl)methanone]
CC50 at 3 days (in vitro): 58.8 µM | EC50 (rgRSV224 virus): 3.77 µM

CCc1cc(C(=O)N2CCc3ccccc3[C@H]2C)nn2cc(-c3ccc(N4CC(O)C4)cc3F)nc12 [Compound 35, (R)-(8-ethyl-2-(2-fluoro-4-(3-hydroxyazetidin-1-yl)phenyl)imidazo[1,2-b]pyridazin-6-yl)(1-methyl-3,4-dihydroisoquinolin-2(1H)-yl)methanone]
CC50 at 3 days (in vitro): 16.3 µM | EC50 (rgRSV224 virus): 0.021 µM

C[C@@H]1c2ccccc2CCN1C(=O)c1cn2cc(-c3ccc(NC(=O)N4CC[C@@H](O)C4)cc3F)nc2c(C2CC2)n1 [Compound 47, (R)-N-(4-(8-cyclopropyl-6-((R)-1-methyl-1,2,3,4-tetrahydroisoquinoline-2-carbonyl)imidazo[1,2-a]pyrazin-2-yl)-3-fluorophenyl)-3-hydroxypyrrolidine-1-carboxamide]
CC50 at 3 days (in vitro): > 100 µM | EC50 (rgRSV224 virus): 2.77 µM

C[C@@H]1c2ccccc2CCN1C(=O)c1cc(C2CC2)c2nc(-c3ccc(N4CC(O)C4)cc3F)cn2c1 [Compound 27, 1-(4-{8-Cyclopropyl-6-[(1R)-1-methyl-1,2,3,4-tetrahydroisoquinoline-2-carbonyl]imidazo[1,2-a]pyridin-2-yl}-3-fluorophenyl)azetidin-3-ol]
CC50 at 3 days (in vitro): 98.1 µM | EC50 (rgRSV224 virus): 0.119 µM

CNC(=O)[C@H]1CCN(c2ccc(-c3cn4cc(C(=O)N5CCc6ccccc6[C@H]5C)cc(C5CC5)c4n3)c(F)c2)C1 [Compound 11, (3S)-1-(4-{8-Cyclopropyl-6-[(1R)-1-methyl-1,2,3,4-tetrahydroisoquinoline-2-carbonyl]imidazo[1,2-a]pyridin-2-yl}-3-fluorophenyl)-N-methylpyrrolidine-3-carboxamide]
CC50 at 3 days (in vitro): > 100 µM | EC50 (rgRSV224 virus): 0.062 µM

Cc1c(-c2ccc(N3CC[C@H](C(N)=O)C3)cc2F)nc2c(C3CC3)cc(C(=O)N3CCc4ccccc4[C@H]3C)cn12 [Compound 21, (3S)-1-(4-{8-Cyclopropyl-3-methyl-6-[(1R)-1-methyl-1,2,3,4-tetrahydroisoquinoline-2-carbonyl]imidazo[1,2-a]pyridin-2-yl}-3-fluorophenyl)pyrrolidine-3-carboxamide]
CC50 at 3 days (in vitro): 35 µM | EC50 (rgRSV224 virus): 0.638 µM

C[C@@H]1c2ccccc2CCN1C(=O)c1cc(C2CC2)c2nc(-c3ccc(-n4cc(C(=O)O)cn4)cc3F)cn2c1 [Compound 25, 1-(4-{8-Cyclopropyl-6-[(1R)-1-methyl-1,2,3,4-tetrahydroisoquinoline-2-carbonyl]imidazo[1,2-a]pyridin-2-yl}-3-fluorophenyl)-1H-pyrazole-4-carboxylic Acid]
CC50 at 3 days (in vitro): 51.3 µM | EC50 (rgRSV224 virus): 0.369 µM

C[C@@H]1c2ccccc2CCN1C(=O)c1cc(C2CC2)c2nc(-c3ccc(N4CC[C@H](C(N)=O)C4)cc3F)cn2c1 [Compound 10, (3S)-1-(4-{8-Cyclopropyl-6-[(1R)-1-methyl-1,2,3,4-tetrahydroisoquinoline-2-carbonyl]imidazo[1,2-a]pyridin-2-yl}-3-fluorophenyl)pyrrolidine-3-carboxamide]
CC50 at 3 days (in vitro): 70.4 µM | EC50 (rgRSV224 virus): 0.049 µM

CCc1cc(C(=O)N2CCc3ccccc3[C@H]2C)nn2cc(-c3ccc4c(c3F)OCC(C(N)=O)=C4)nc12 [Compound 46, (R)-7-(8-ethyl-6-(1-methyl-1,2,3,4-tetrahydroisoquinoline-2-carbonyl)imidazo[1,2-b]pyridazin-2-yl)-8-fluoro-2H-chromene-3-carboxamide]
CC50 at 3 days (in vitro): > 100 µM | EC50 (rgRSV224 virus): 0.054 µM

CCc1cc(C(=O)N2CCc3ccccc3[C@H]2C)nn2cc(-c3ccc4c(c3F)C=C(C(N)=O)CO4)nc12 [Compound 45, (R)-6-(8-ethyl-6-(1-methyl-1,2,3,4-tetrahydroisoquinoline-2-carbonyl)imidazo[1,2-b]pyridazin-2-yl)-5-fluoro-2H-chromene-3-carboxamide]
CC50 at 3 days (in vitro): > 100 µM | EC50 (rgRSV224 virus): 0.105 µM

C[C@@H]1c2ccccc2CCN1C(=O)c1cc(C2CC2)c2nc(-c3ccc(C(N)=O)cc3F)cn2c1 [Compound 2, 4-{8-Cyclopropyl-6-[(1R)-1-methyl-1,2,3,4-tetrahydroisoquinoline-2-carbonyl]imidazo[1,2-a]pyridin-2-yl}-3-fluorobenzamide]
CC50 at 3 days (in vitro): 54 µM | EC50 (rgRSV224 virus): 0.072 µM

C[C@@H]1c2ccccc2CCN1C(=O)c1cc(C2CC2)c2nc(-c3ccc(N4CC[C@H](C(N)=O)C4)nc3F)cn2c1 [Compound 22, (3S)-1-(5-{8-Cyclopropyl-6-[(1R)-1-methyl-1,2,3,4-tetrahydroisoquinoline-2-carbonyl]imidazo[1,2-a]pyridin-2-yl}-6-fluoropyridin-2-yl)pyrrolidine-3-carboxamide]
CC50 at 3 days (in vitro): 37.4 µM | EC50 (rgRSV224 virus): 0.171 µM

C[C@@H]1c2ccsc2CCN1C(=O)c1cc(C2CC2)c2nc(-c3ccc(N4CC[C@H](C(N)=O)C4)cc3F)cn2c1 (single isomer, unassigned) [Compound 13, (3S)-1-(4-{8-Cyclopropyl-6-[(4*R)-4-methyl-4,5,6,7-tetrahydro-thieno[3,2-c]pyridine-5-carbonyl]imidazo[1,2-a]pyridin-2-yl}-3-fluorophenyl)pyrrolidine-3-carboxamide]
CC50 at 3 days (in vitro): 77.1 µM | EC50 (rgRSV224 virus): 0.037 µM

C[C@@H]1c2ccccc2CCN1C(=O)c1cc(C2CC2)c2nc(-c3ccc(C4C[C@@H]4C(=O)O)cc3F)cn2c1 (relative stereo) [Compound 6, Trans 2-(4-{8-Cyclopropyl-6-[(1R)-1-methyl-1,2,3,4-tetrahydroisoquinoline-2-carbonyl]imidazo[1,2-a]pyridin-2-yl}-3-fluorophenyl)cyclopropane-1-carboxylic acid]
CC50 at 3 days (in vitro): 56.2 µM | EC50 (rgRSV224 virus): 0.103 µM

C[C@@H]1c2ccccc2CCN1C(=O)c1cc(C2CC2)c2nc(-c3ccc(NC(=O)N4CC[C@H](O)C4)cc3F)cn2c1 [Compound 4, (3S)-N-(4-{8-Cyclopropyl-6-[(1R)-1-methyl-1,2,3,4-tetrahydroisoquinoline-2-carbonyl]imidazo[1,2-a]pyridin-2-yl}-3-fluorophenyl)-3-hydroxypyrrolidine-1-carboxamide]
CC50 at 3 days (in vitro): 51.4 µM | EC50 (rgRSV224 virus): 0.035 µM

C[C@@H]1c2ccccc2CCN1C(=O)c1cc(C2CC2)c2nc(-c3ccc(N4CC[C@H](O)C4)cc3F)cn2c1 [Compound 12, (3S)-1-(4-{8-Cyclopropyl-6-[(1R)-1-methyl-1,2,3,4-tetrahydroisoquinoline-2-carbonyl]imidazo[1,2-a]pyridin-2-yl}-3-fluorophenyl)pyrrolidin-3-ol]
CC50 at 3 days (in vitro): 67.7 µM | EC50 (rgRSV224 virus): 0.169 µM

C[C@@H]1CCCCCN1C(=O)c1cc(C2CC2)c2nc(-c3ccc([C@H]4C[C@@H]4C(=O)O)cc3F)cn2n1 [Compound 33, (1S,2S)-2-(4-{8-Cyclopropyl-6-[(2R)-2-methylazepane-1-carbonyl]imidazo[1,2-b]pyridazin-2-yl}-3-fluorophenyl)cyclopropane-1-carboxylic Acid]
CC50 at 3 days (in vitro): 50.5 µM | EC50 (rgRSV224 virus): 0.067 µM

C[C@@H]1c2ccccc2CCN1C(=O)c1cc(C2CC2)c2nc(-c3ccc(NC(=O)N4CC[C@@H](O)C4)cc3F)cn2c1 [Compound 5, (3R)-N-(4-{8-Cyclopropyl-6-[(1R)-1-methyl-1,2,3,4-tetrahydroisoquinoline-2-carbonyl]imidazo[1,2-a]pyridin-2-yl}-3-fluorophenyl)-3-hydroxypyrrolidine-1-carboxamide]
CC50 at 3 days (in vitro): 40.1 µM | EC50 (rgRSV224 virus): 0.048 µM

C[C@@H]1c2ccccc2CCN1C(=O)c1cc(C2CC2)c2nc(-c3ccc(N4CC(C(=O)NS(C)(=O)=O)C4)cc3F)cn2c1 [Compound 28, 1-(4-{8-Cyclopropyl-6-[(1R)-1-methyl-1,2,3,4-tetrahydroisoquinoline-2-carbonyl]imidazo[1,2-a]pyridin-2-yl}-3-fluorophenyl)-N-methanesulfonylazetidine-3-carboxamide]
CC50 at 3 days (in vitro): > 100 µM | EC50 (rgRSV224 virus): 3.11 µM

C[C@@H]1c2ccccc2CCN1C(=O)c1cc(C2CC2)c2nc(-c3ccc(N)cc3F)cn2c1 [Compound 3, 4-{8-Cyclopropyl-6-[(1R)-1-methyl-1,2,3,4-tetrahydroisoquinoline-2-carbonyl]imidazo[1,2-a]pyridin-2-yl}-3-fluoroaniline]
CC50 at 3 days (in vitro): 68 µM | EC50 (rgRSV224 virus): 0.054 µM

C[C@@H]1c2ccccc2CCN1C(=O)c1cc(C2CC2)c2nc(-c3ccc4c(c3F)C=C(C(=O)O)CO4)cn2c1 [Compound 29, (R)-6-(8-cyclopropyl-6-(1-methyl-1,2,3,4-tetrahydroisoquinoline-2-carbonyl)imidazo[1,2-a]pyridin-2-yl)-5-fluoro-2H-chromene-3-carboxylic Acid]
CC50 at 3 days (in vitro): 49.5 µM | EC50 (rgRSV224 virus): 0.146 µM

C[C@@H]1c2ccccc2CCN1C(=O)c1cc(C2CC2)c2nc(-c3ccc([C@H]4C[C@@H]4C(=O)O)cc3F)cn2n1 [Compound 32, (1S,2 S)-2-(4-{8-Cyclopropyl-6-[(1R)-1-methyl-1,2,3,4-tetrahydroisoquinoline-2-carbonyl]imidazo[1,2-b]pyridazin-2-yl}-3-fluorophenyl)cyclopropane-1-carboxylic Acid]
CC50 at 3 days (in vitro): 51.5 µM | EC50 (rgRSV224 virus): 0.01 µM

C[C@@H]1c2ccccc2CCN1C(=O)c1cc(C2CC2)c2nc(-c3ccc(C4C[C@@H]4C(=O)NS(C)(=O)=O)cc3F)cn2c1 (relative stereo) [Compound 8, Trans 2-(4-{8-Cyclopropyl-6-[(1R)-1-methyl-1,2,3,4-tetrahydroisoquinoline-2-carbonyl]imidazo[1,2-a]pyridin-2-yl}-3-fluorophenyl)-N-methanesulfonylcyclopropane-1-carboxamide]
CC50 at 3 days (in vitro): 69.1 µM | EC50 (rgRSV224 virus): 0.793 µM

C[C@@H]1c2ccccc2CCN1C(=O)c1cc(C2CC2)c2cc(-c3ccc(NC(=O)N4CC[C@@H](O)C4)cc3F)cn2n1 [Compound 49, (R)-N-(4-(4-cyclopropyl-2-((R)-1-methyl-1,2,3,4-tetrahydroisoquinoline-2-carbonyl)pyrrolo[1,2-b]pyridazin-6-yl)-3-fluorophenyl)-3-hydroxypyrrolidine-1-carboxamide]
CC50 at 3 days (in vitro): 45.5 µM | EC50 (rgRSV224 virus): 0.048 µM
